Assay type in all cases: in vivo, rat
One assay deals with NT-proBNP. Nature of the assay: Serum NT-proBNP by ELISA in CHF-HKYd rats. The following applies: benazepril 0.5 mg/kg, gavage 4 weeks. How it is done:
(§1) SPF SD male rats were anesthetized by intraperitoneal injection of 25% urethane (1,000 mg/kg). Cut off the skin tissue for about 1 cm, blunt away from bilateral neck muscles, separate and excise the bilateral thyroid glands, and the parathyroid glands were retained. The mixture of noradrenaline and normal saline (1:4,000) was used to stop intraoperative bleeding during the operation, the muscle and skin were sutured and 0.1% calcium gluconate solution was given postoperatively. On the 10th day after thyroidectomy, the rats were intraperitoneally injected with 0.02% doxorubicin hydrochloride (1 mL/100 g), twice a week for 3 weeks.
The general state of rats was observed: the basic criteria for the symptoms of HKYd were dark purple coating on the tongue, asthma, edema, fear of cold, emaciation, loose stools, sleepiness, hypotrichosis, etc. The urine volume of rats was measured: 1 week after the last injection, 24 h urine volume of rats in the normal and model group were collected in the metabolic cage, and the urine samples were frozen at −80°C. Evaluation of cardiac function in rats by Doppler echocardiography: After urine collection, the rats were anesthetized and fixed in the supine position. The precardiac area of the rats was depilated and the coupling agent was applied, a frequency of 12 MHz. […] The contents of serum NT-proBNP, T3, and T4 were detected by ELISA. […]

The subject of the next assay is IL-6. Nature of the assay: Serum IL-6 by ELISA in CHF-HKYd rats. The following applies: benazepril 0.5 mg/kg, gavage 4 weeks. How it is done:
as §1
(§2) All rats were randomly divided into control group, model group, ESZWD low-dose (3.96 g/kg), medium-dose (7.92 g/kg), high-dose (15.84 g/kg) groups, and positive control group (benazepril, 0.5 mg/kg), with six rats in each group. The CHF-HKYd was established after 1 week of feeding. […] The state of rats was observed and the urine volume at 24 h was measured. The structure and function of rat heart were evaluated by doppler ultrasonography. Serum biomarkers including myocardial injury indicators NT-proBNP, angiotensinII (AngII), aldosterone (ALD), reactive oxygen species (ROS), superoxide dismutase (SOD), malondialdehyde (MDA), and tumor necrosis factor α (TNF-α) and interleukin 6 (IL-6) were detected by ELISA.
On the technique in general: ELISA stands for enzyme-linked immunosorbent assay.

The next assay concerns TNF-α. The experiment in a line: Serum TNF-α by ELISA in CHF-HKYd rats. The following applies: benazepril 0.5 mg/kg, gavage 4 weeks. How it is done:
as §1, §2

The next assay has as its system AngII. The experiment in a line: Serum angiotensinII (AngII) by ELISA in CHF-HKYd rats. The following applies: benazepril 0.5 mg/kg, gavage 4 weeks. As to the method:
as §1, §2

The next assay relates to ROS. The experiment in a line: Serum reactive oxygen species (ROS) by ELISA in CHF-HKYd rats. The following applies: benazepril 0.5 mg/kg, gavage 4 weeks. How it is done: as §1, §2
A further assay deals with CHF-HKYd rats. Nature of the assay: Doppler echocardiography of cardiac function in CHF-HKYd rats. The following applies: benazepril 0.5 mg/kg by gavage for 4 weeks (positive control). How it is done:
as §1
The general state of rats was observed: the basic criteria for the symptoms of HKYd were dark purple coating on the tongue, asthma, edema, fear of cold, emaciation, loose stools, sleepiness, hypotrichosis, etc. The urine volume of rats was measured: 1 week after the last injection, 24 h urine volume of rats in the normal and model group were collected in the metabolic cage, and the urine samples were frozen at −80°C. Evaluation of cardiac function in rats by Doppler echocardiography: After urine collection, the rats were anesthetized and fixed in the supine position. The precardiac area of the rats was depilated and the coupling agent was applied, a frequency of 12 MHz. M-mode ultrasound and pulsed Doppler ultrasound were used to detect diastolic interventricular septum (IVSD), left ventricular internal diastolic diameter (LVIDd), left ventricular posterior wall diastolic diameter (LVPWd), systolic interventricular septum (IVSs) and left ventricular internal systolic diameter (LVIDs), left ventricular posterior wall systolic diameter (LVPWs), stroke volume (SV), left ventricular ejection fraction (LVEF), left ventricular short-axis systolic fraction (FS), and the ratio of peak flow velocity between early and late mitral valve diastole (E/A) through the left ventricular macropinacoid of left sternal bone and four-chamber view. Neuroendocrine factor detection: After the echocardiography, 1 mL of blood was taken from the canthus of rats in each group, blood was placed in the water at 37°C for 1.5 h, centrifuged to obtain serum (3,000 rpm, 10 min), frozen at −80°C. The contents of serum NT-proBNP, T3, and T4 were detected by ELISA.
All rats were randomly divided into control group, model group, ESZWD low-dose (3.96 g/kg), medium-dose (7.92 g/kg), high-dose (15.84 g/kg) groups, and positive control group (benazepril, 0.5 mg/kg), with six rats in each group. The CHF-HKYd was established after 1 week of feeding. ESZWD and benazepril were administered by gavage separately for 4 weeks after successful modeling, except for the control group. Blood was collected for 5, 10, 20, 30, 45 min, 1, 2, 4, 6, 8, 12, and 24 h, standing for 2 h and centrifuged at 4°C, 3,500 rpm for 10 min, the supernatant was retained. The state of rats was observed and the urine volume at 24 h was measured. The structure and function of rat heart were evaluated by doppler ultrasonography. Serum biomarkers including myocardial injury indicators NT-proBNP, angiotensinII (AngII), aldosterone (ALD), reactive oxygen species (ROS), superoxide dismutase (SOD), malondialdehyde (MDA), and tumor necrosis factor α (TNF-α) and interleukin 6 (IL-6) were detected by ELISA.

A further assay deals with MDA. The experiment in a line: Serum malondialdehyde (MDA) by ELISA in CHF-HKYd rats. The following applies: benazepril 0.5 mg/kg, gavage 4 weeks. How it is done: as §1, §2
The next assay concerns ALD. Nature of the assay: Serum aldosterone (ALD) by ELISA in CHF-HKYd rats. The following applies: benazepril 0.5 mg/kg, gavage 4 weeks. As to the method:
as §1, §2

Experimental findings from PMC9515952, “Tentative exploration of pharmacodynamic substances: Pharmacological effects, chemical compositions, and multi-components pharmacokinetic characteristics of ESZWD in CHF-HKYd rats” (Frontiers in Cardiovascular Medicine, 2022) are described below.

As for `CCOC(=O)[C@H](CCc1ccccc1)N[C@H]1CCc2ccccc2N(CC(=O)O)C1=O` [Benazepril, benazepril], in the assay on NT-proBNP, the “serum NT-proBNP level vs model group” value is given as “significantly reduced”. Moreover, in the assay with IL-6, the “serum IL-6 level vs model group” value is “significantly reduced”. For the same compound, the “serum TNF-α level vs model group” value in the assay on TNF-α was “significantly reduced”. The “serum AngII level vs model group” value in the assay on AngII was “significantly reduced”. Also, the “serum ROS level vs model group” value with ROS is “significantly reduce”. For the same compound, in the assay on CHF-HKYd rats, the E/A was 1.794 ± 0.28, the FS came to 60.31 ± 8.10 %, the IVSd is given as 1.800 ± 0.62 mm and the IVSs is recorded as 3.425 ± 0.88 mm. In the assay with CHF-HKYd rats, this compound had an LVEF of 92.30 ± 4.09 %, an LVIDd of 5.950 ± 1.28 mm, an LVIDs of 2.350 ± 0.72 mm and an LVPWd of 1.900 ± 0.67 mm. In the assay with CHF-HKYd rats, the LVPWs was 3.525 ± 0.79 mm and the SV worked out at 0.4950 ± 0.25 mL. The “serum MDA level vs model group” value with MDA is on record as “significantly reduce”. Moreover, in the assay on ALD, the “serum ALD level vs model group” value is “significantly reduced”.
